Here are results for eight molecules from ChEMBL document CHEMBL1149515, “Small molecule inhibitors of IgE synthesis” (Bioorg Med Chem Lett, 2006).

In one series the test system is PBL. Nature of the series: Inhibition of IL4-induced IgE synthesis in human peripheral blood lymphocytes. In kind it is functional, cell-based.
The nature of series [1]: Stability in human liver microsome at 1uM. In kind it is ADME. The conditions noted are these: liver microsomes. Background: Microsomes from liver hold many membrane-bound enzymes, among them those of drug oxidation.
The next series relates to CYP1A2. Nature of the series: Half life assessed as CYP1A2 mediated metabolism at 1 uM. In kind it is ADME.
The test system of a further series is CYP1A1. Kind of series: Half life assessed as CYP1A1 mediated metabolism at 1 uM. The format is ADME.
Series [2] in a line: Lipophilicity, LogD of the compound. In kind it is physicochemical. The conditions noted are these: octanol/water.
For the next series, the system named is Salmonella typhi. Nature of the series: Mutagenic activity against […] by Ames assay. The conditions noted are these: Salmonella enterica subsp. enterica […]. The format is functional, organism-based. In general terms: In the Ames test, an excess of revertant colonies over the control signals mutagenicity.

pIC50: −log10 of the molar value. Active and inactive are the calls of the source.

As for `c1cn2ccnc2c(N2CCN(C3CCCC3)CC2)n1`, in the series with PBL, the pIC50 – broadly, −log10 of the IC50, conventionally taken in molar units – was under 5.00. Besides, the half-life at 1 µM (in series [1]; in the series on CYP1A2) was over 120 min throughout.
`CCN1CCC(NC(=O)c2nc(N3CCN(c4ncccn4)CC3)c3nccn3c2C)CC1`: in the series with PBL, the negative logarithm of the IC50 (pIC50) was 7.31. The half-life at 1 µM (in series [1]; in the series with CYP1A1) was over 120 min each time. Moreover, the logD (as a rule, lipophilicity at a set pH, counting ionised and neutral species) in series [2] was 1.2.
In turn, `c1cn2ccnc2c(-c2ccc(N3CCCC3)nc2)n1` gave a pIC50 in the series with PBL of 7.26. Also, the half-life – broadly, the time needed for the level to fall by half in the phase considered – at 1 µM in series [1] is 14 min; in the series with CYP1A2, under 1 min; in the series with CYP1A1, under 1 min. The molecule further gave a logD in series [2] of 2.5.
`c1cnc(N2CCN(c3nccn4ccnc34)CC2)nc1` had a pIC50 with PBL of 7.74. The half-life at 1 µM in series [1] was 45 min; in the series with CYP1A2, 2 min; in the series on CYP1A1, under 2 min. Moreover, the result in the series on Salmonella typhi was Active. The same molecule showed a logD in series [2] of 2.
`O=C(CCc1cnc2c(N3CCN(c4ncccn4)CC3)nccn12)N1CCOCC1` gave a pIC50 in the series on PBL of under 5.00. Besides, the half-life at 1 µM in the series on CYP1A2 and in the series on CYP1A1 was over 120 min each time.
The molecule `CN1CCC(NC(=O)c2cn3ccnc3c(N3CCN(c4ccccn4)CC3)n2)CC1` showed a pIC50 in the series with PBL of 7.43. For the same molecule, the results for the half-life at 1 µM (in series [1]; in the series on CYP1A2; in the series on CYP1A1) were over 120 min, 95 min and 45 min, respectively.
In the series with PBL, `O=C(NC1CCNC1)c1cn2ccnc2c(N2CCN(c3ccccn3)CC2)n1` (stereo not drawn) showed a pIC50 of 6.93. In addition, the half-life at 1 µM (in series [1]; in the series with CYP1A2) was over 120 min throughout.
Take `CC(C)(C)NC(=O)c1cn2ccnc2c(N2CCN(c3ncccn3)CC2)n1`: the pIC50 in the series with PBL is 7.41. In addition, the half-life at 1 µM in series [1] was 3 min; with CYP1A1, 13 min. The result in the series with Salmonella typhi was inactive. Moreover, the logD in series [2] was 3.7.
